In US7695923B2, “CFTR polypeptides methods to overcome biosynthetic misprocessing” (Mayo Foundation for Medical Education and Research, priority 1999, dated 2010):
“Also recorded” adds a separate entry of the source.

How the values were obtained:
[1] = tested on: BHK cells; test: cAMP stimulated 36Cl- efflux from CFTR expressing cells; type: cell-based, Baby hamster; conditions: stimulation with IBMX, Forskolin, dibutyryl cyclic AMP
Description: Wild-type and ΔF508 CFTR expressing cells with each of the individual R[…]K substitutions, or all four lysine substitutions were grown to confluence in six well culture dishes. The cells were washed with a modified Ringer's buffer solution (136 mM NaNO3, 3 mM KNO3, 2 mM Ca(NO3)2, 2 mM Mg(NO3)2, 10 mM glucose and 20 mM HEPES, pH 7.4) and loaded for 60 min at room temperature with the same buffer supplemented with 1 μCi Na^36Cl (Amersham) in a volume of 0.5 ml per well. Wells were then washed three times at one min intervals. Samples (0.5 ml) were then collected at 1 minute intervals for scintillation counting with stimulation occurring at time 0 by adding buffer containing 1 mM IBMX, 10 μM Forskolin and 100 μM dibutyryl cyclic AMP. The 0.5 ml samples were collected into 24 well Top Count plates (Packard) and 1 ml of Microcint 40 scintillation cocktail (Packard) was added. ^36Cl^− radioactivity was determined in a Packard Top Count scintillation counter.

[2] = tested on: BHK cells; test: 35S-methionine pulse chase of CFTR maturation; type: cell-based, Baby hamster; conditions: for radioactivity of pulse-labeled immature band present in mature band (conversion of precursor to product): after 4 h of chase, electronic autoradiography; for maturation at the end of the pulse: end of the pulse (0 min); for conversion of precursor to mature endoH resistant form during chase: pulse chase
Description: Pulse chase studies were performed to determine the rate at which maturation occurred in the arginine-framed triplet substituted wild-type and ΔF508 CFTR polypeptides (FIG. 2). […] Cells were lysed at the end of the labeling period (0 chase time) or were further incubated in complete medium containing 5% fetal bovine serum and 1 mM methionine for the indicated times (chase). Cells were collected and lysed with the NP40 lysis buffer described above and centrifuged at 15,000×g for 15 min at 4° C. to obtain a soluble supernatant which was incubated overnight with the M3A7 primary antibody. Protein G-agarose (Gibco-BRL) was then used to remove the complexes formed which were washed four times with RIPA buffer, dissolved in electrophoresis sample buffer, and subsequently fractionated on SDS-7% acrylamide gels. Following fractionation, the gels were fixed in 30% methanol and 10% acetic acid, equilibrated in 1M sodium salicylate and dried for fluorography. Electronic autoradiography was performed with a Packard Instant Imager. […]

[3] = tested on: CFTR chloride channels; test: Single CFTR Cl- channel recording in planar lipid bilayers; type: biochemical, human; conditions: for Conductance: 300 mM Tris-HCl; for Conductance / Long mean closed time τc2 / Mean open time τ0 / Short mean closed time τc1: -75 mV, 2 mM MgATP; for open probability: 25° C.
Description: (§1) To further characterize the Cl^− channel activity, membrane vesicles were isolated from cells expressing wild-type, wild-type/4RK and ΔF508/4RK CFTR, fused with planar lipid bilayers and single channels were recorded (Aleksandrov, A. A., and Riordan, J. R. (1998) FEBS Lett. 431:97-101). Vesicles were prepared and phosphorylated with PKA as described previously (Aleksandrov and Riordan, 1998, supra). Briefly, planar lipid bilayers were painted onto a 0.2 mm hole drilled in a Teflon cup using a phospholipid solution in n-decane containing a 2:1 mixture of 1-palmitoyl-2-oleoyl-sn-glycero-3-phosphoethanolamine and 1-palmitoyl-2-oleoyl-sn-glycero-3-phosphoserine (20 mg/ml). The lipid bilayer separated 1.0 ml of solution in the Teflon cup (cis-side) from 4.0 ml of solution in an outer glass chamber (trans-side). Both chambers were magnetically stirred and thermostated. Heating and temperature control were established using a Temperature Control System TC2BIP (Cell MicroControls). Electrical contact with the solutions was provided by Ag/AgCl electrodes through agar bridges filled with 0.5 M KCl. The membrane potential difference was measured as the difference between trans and cis side potentials. The trans side was grounded and electrical measurements of the single channel current were performed under voltage clamp conditions using an Axopatch 200B (Axon Instruments) amplifier. The output signal was filtered with an 8-pole low pass Bessel Filter LPBF-48DG (NPI Electronic GmbH) with cut off frequency of 50 Hz and recorded on magnetic tape using a VR-10B (Instrutech Corp.) digital data recorded on a Sony SLV-440 VCR. For data analysis, the signal was digitized (Digidata 1200; Axon Instruments) with a sampling rate of 500 Hz and analyzed using pCLAMP 6.0 (Axon Instruments) software. Origin 4.0 (Microcal) software was used to fit all points histograms by multi-peak Gaussians. Membrane vesicles were prephosphorylated with PKA and added as a concentrated stock solution to the cis side to obtain a final protein concentration of 10-15 μg/ml. Measurements were made in symmetrical salts solutions containing, in mM: 300 Tris-HCl, 2 MgCl, 1 EGTA, pH=7.2, at a membrane potential of −75 mV. MgATP (2 mM) was added to the cis side only. Under these conditions any cationic channels present in the membrane vesicles are invisible and CFTR chloride channels appeared only after fusion of vesicles with an inside out orientation. Conductances for wild-type, wild-type/4RK and ΔF508/4RK were 10.7, 10.8, and 10.7 pS, respectively. Mean open times τ0 were 230, 1400, and 700 msec respectively. Short mean closed times τc1 were 10 msec in each case. Long mean closed times τc2 were 680, 2000, and 2800 msec, respectively. Conductance as a function of Cl^− concentration and temperature as well as anion selectivity of the CFTR ion channel were tested in control experiments showing good agreement with published data (Tabcharani, J. A et al. (1997) J. Gen. Physiol. 110:341-54).

[4] = tested on: BHK cells; test: Indirect immunofluorescence localization of CFTR with M3A7; type: cell-based, Baby hamster; conditions: M3A7 staining, permeabilized cells
Description: Immunofluorescence microscopy in cells expressing ΔF508 CFTR was performed using the highly specific monoclonal antibody, M3A7 (Kartner et al., 1992, supra). Briefly, transformed cells were grown on coverslips, fixed in 70% cold methanol at −20° C. for 10 minutes, blocked using 1% BSA and 5% normal rabbit serum in PBS and were permeabilized by incubating in PBS+0.1% saponin for 1 h at 4° C. CFTR was detected by incubation with 10 μg/ml of M3A7 primary antibody for 60 min at room temperature. Rhodamine linked rabbit anti-mouse secondary antibody (DAKO) was diluted 1:50 in the same blocking solution for a further 1 h incubation. Photomicrographs were made using a Diagnostic Instruments Spot Cam digital camera on a Nikon Microphot-FXA microscope.

[5] = target: T1, CFTR chloride channels (Homo sapiens, UniProt P13569, DEL508-508/V470M); test: Single CFTR Cl- channel recording in planar lipid bilayers; type: biochemical; conditions: vesicles from BHK cells
T1 construct: These five fragments were ligated together to generate full length CFTR cDNA in pNUT; expressed in transfected cells; host or cells: BHK (baby hamster kidney) cells, stably transfected with pNUT-CFTR constructs; membrane vesicles fused with planar lipid bilayers
T1 sequence (P13569 with tags, fused parts or gaps V470M/DEL508-508): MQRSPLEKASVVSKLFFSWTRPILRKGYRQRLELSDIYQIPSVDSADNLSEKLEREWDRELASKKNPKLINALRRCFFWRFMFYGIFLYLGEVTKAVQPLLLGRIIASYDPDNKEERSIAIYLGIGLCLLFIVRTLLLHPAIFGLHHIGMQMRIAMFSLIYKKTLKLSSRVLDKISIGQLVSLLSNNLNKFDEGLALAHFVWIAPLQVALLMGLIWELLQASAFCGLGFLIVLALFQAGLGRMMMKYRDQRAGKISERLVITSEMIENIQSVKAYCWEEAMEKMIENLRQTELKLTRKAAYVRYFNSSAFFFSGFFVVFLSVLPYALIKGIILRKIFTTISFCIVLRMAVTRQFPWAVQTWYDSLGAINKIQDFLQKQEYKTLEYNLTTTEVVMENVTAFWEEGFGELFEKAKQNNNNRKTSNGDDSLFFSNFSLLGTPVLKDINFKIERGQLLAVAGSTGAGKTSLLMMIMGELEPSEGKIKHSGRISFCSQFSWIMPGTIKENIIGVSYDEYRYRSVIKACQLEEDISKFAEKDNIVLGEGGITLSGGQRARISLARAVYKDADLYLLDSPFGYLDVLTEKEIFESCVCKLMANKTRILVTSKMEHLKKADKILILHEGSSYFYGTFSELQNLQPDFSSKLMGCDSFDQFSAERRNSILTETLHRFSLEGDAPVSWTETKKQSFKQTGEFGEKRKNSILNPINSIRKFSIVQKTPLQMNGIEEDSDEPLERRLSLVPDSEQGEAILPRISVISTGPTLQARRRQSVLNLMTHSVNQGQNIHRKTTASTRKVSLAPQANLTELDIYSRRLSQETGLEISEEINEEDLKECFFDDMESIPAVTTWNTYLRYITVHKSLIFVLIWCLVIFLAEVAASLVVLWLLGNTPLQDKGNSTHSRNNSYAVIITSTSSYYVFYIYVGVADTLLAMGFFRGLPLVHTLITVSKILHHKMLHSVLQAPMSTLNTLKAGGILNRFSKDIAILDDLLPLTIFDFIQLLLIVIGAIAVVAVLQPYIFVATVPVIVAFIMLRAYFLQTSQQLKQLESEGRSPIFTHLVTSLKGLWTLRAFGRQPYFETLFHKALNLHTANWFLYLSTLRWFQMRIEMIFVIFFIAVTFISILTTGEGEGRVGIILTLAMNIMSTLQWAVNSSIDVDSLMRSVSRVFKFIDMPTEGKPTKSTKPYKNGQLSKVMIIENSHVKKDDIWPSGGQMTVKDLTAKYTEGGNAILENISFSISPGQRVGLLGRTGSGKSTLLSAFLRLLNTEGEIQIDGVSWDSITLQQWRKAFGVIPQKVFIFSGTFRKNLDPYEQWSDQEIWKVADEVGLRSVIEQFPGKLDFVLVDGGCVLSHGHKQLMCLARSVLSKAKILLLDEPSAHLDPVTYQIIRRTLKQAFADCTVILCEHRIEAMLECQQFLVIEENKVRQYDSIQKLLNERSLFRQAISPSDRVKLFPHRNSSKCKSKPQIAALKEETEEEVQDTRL
Description: as §1

[6] = tested on: BHK cells; test: Western blot of BHK cell extracts with M3A7 antibody, with endoglycosidase H digestion; type: cell-based, Baby hamster; conditions: ΔF508 CFTR background; for mature bands of lower mobility on Western blot: steady state, BHK cell extracts
Description: Baby hamster kidney cells (BHK) cells grown at 37° C. in 5% CO2 were employed as hosts for CFTR expression as described previously (Loo et al. (1998) EMBO J. 17:6879-6887; and Seibert, F. S et al. (1995) J. Biol. Chem. 270:2158-2162). Subconfluent BHK cells were transformed with the above wild-type or ΔF508 CFTR constructs using calcium phosphate precipitation (Chen, C., and Okayama, H. (1987) Mol. Cell. Biol. 7: 2745-2752). After growth in selective media containing 500 μM methotrexate, individual colonies were picked and amplified in the same selective media.
BHK cells were grown, collected and then lysed with 1% SDS; the DNA was sheared by cycling through a 22 gauge needle. Protein lysate (20 μg) from the sample were then subjected to SDS-PAGE on 7% polyacrylamide gels. Protein was electroblotted from the gel to nitrocellulose membrane and the membrane was probed with a mouse anti-CFTR monoclonal antibody, M3A7 (Kartner, N. et al. (1992) Nat. Genetics 1:321-7). Chemiluminescent detection was performed according to the manufacturer's recommendations (Pierce).
For endoglycosidase H treatment, cell lysates were diluted with 10 volumes of buffer (50 mM sodium acetate, pH 5.3, 0.5% Nonidet P-40, 1% β-mercaptoethanol plus a protease inhibitor mixture: 2 μg/ml aprotinin, 120 μg/ml benzamidine, […], 1 μg/ml leupepetin and 50 μg/ml pefabloc). This yielded a final SDS concentration of 0.1%. Samples were then incubated for 4 hr at 37° C. with 10 mU of endoglycosidase H (Boehringer Mannheim). The reactions were stopped by addition of 4 volumes of cold ethanol (−20° C.) to precipitate the proteins. Precipitated proteins were then resuspended in gel loading dye and subjected to SDS-PAGE and immunoblotting as above.

[7] = tested on: BHK cells; test: Cell surface biotinylation of CFTR on intact cell monolayers; type: cell-based, Baby hamster
Description: For cell surface biotinylation studies, cells grown to about 90% confluency were treated with 2 mM sodium butyrate for 18 h to augment CFTR expression. Dishes of cells were then placed on ice in a cold room for 30 minutes and all subsequent steps were performed. Cells washed with PBS containing 0.1 mM CaCl2 and 1.0 mM MgCl2, were labeled using 3 ml of 1 mg/ml EZ-Link Sulfo-NHS-SS-biotin (Pierce) in PBS, pH 8.0 for 30 minutes. Following washes in PBS+1% BSA and PBS, cells were incubated for 30 minutes in NP40 lysis buffer (0.09% NP40, 150 mM NaCl, 10 mM NH4MoO4, 50 mM Tris-HCl, pH 7.4), scraped and transferred to microfuge tubes. Insoluble materials were removed by centrifugation. Biotinylated proteins were then precipitated by incubation overnight with 50 μl of packed immobilized streptavidin beads (Pierce). Beads were washed with RIPA buffer (0.1% SDS, 1% DOC, 1% Triton X-100, 150 mM NaCl, 50 mM Tris-Hcl, pH 7.4) and proteins eluted with gel sample buffer for electrophoresis and Western blotting with M3A7 as detailed above.

| Substance | cAMP stimulated 36Cl- efflux rate [1] | conversion of precursor to mature endoH resistant form during chase [2] | Conductance [3] [pS] | Long mean closed time τc2 [3] [ms] | Mean open time τ0 [3] [ms] | Short mean closed time τc1 [3] [ms] | CFTR localization by immunofluorescence [4] | also measured |
| --- | --- | --- | --- | --- | --- | --- | --- | --- |
| R516K: ΔF508 CFTR in which arginine 516 has been substituted with lysine | No detectable increase in efflux rate | – | – | – | – | – | – | – |
| R555K: ΔF508 CFTR in which arginine 555 has been substituted with lysine | No detectable increase in efflux rate | – | – | – | – | – | – | – |
| R766K: ΔF508 CFTR in which arginine 766 has been substituted with lysine | No detectable increase in efflux rate | – | – | – | – | – | – | – |
| wild-type CFTR: full-length human CFTR expressed from pNUT vector in BHK cells [reference compound] | – | begins within an hour | 10.7 | 680 | 230 | 10 | strong uniform staining of mature CFTR over the entire cell surface | radioactivity of pulse-labeled immature band present in mature band (conversion of precursor to product) [2]: ~30%; maturation at the end of the pulse [2]: no maturation; open probability [3]: ~0.25 |
| wild-type/4RK: wild-type CFTR in which four arginines (R29K, R516K, R555K, R766K) have been substituted with lysine | – | more rapid maturation | 10.8 | 2000 | 1400 | 10 | – | maturation at the end of the pulse [2]: already evident; open probability [3]: ~0.61 |
| ΔF508 CFTR: export-incompetent cystic fibrosis causing CFTR mutant lacking phenylalanine 508 | No detectable increase in efflux rate | no conversion; also recorded: fails to mature even after two hours | – | – | – | – | Perinuclear staining only | detection of CFTR-like single channels [5]: never been able to detect CFTR-like single channels |
| ΔF508/4RK: ΔF508 CFTR having all four arginines (29, 516, 555, 766) substituted with lysine | more than half as rapid as those from cells expressing wild-type CFTR | readily apparent | 10.7 | 2800 | 700 | 10 | extension of the staining more peripherally | radioactivity of pulse-labeled immature band present in mature band (conversion of precursor to product) [2]: approximately 10%; endoglycosidase H sensitivity of the large bands [6]: Endoglycosidase-H insensitivity; mature bands of lower mobility on Western blot [6]: bands of lower mobility are produced; accessibility of mature band to surface biotinylation [7]: accessible to the impermeant amino reactive biotinylation reagent |
| ΔF508/R29K: ΔF508 CFTR in which arginine 29 has been substituted with lysine | low rates of ^36Cl^− efflux occurred at delayed times after stimulation | – | – | – | – | – | – | endoglycosidase H sensitivity of the large bands [6]: Endoglycosidase-H insensitivity; mature bands of lower mobility on Western blot [6]: bands of lower mobility are produced |
